From patent publication US20260226031A1, “NOVEL COMPOUNDS” (NRG THERAPEUTICS LTD., priority 2023, published 2026)

Tests used:
mPTP [1] = assay: mPTP activity (Ca2+ retention) assay in isolated rat liver mitochondria; assay type: biochemical; settings: isolated rat liver mitochondria; Fluo5N fluorescence at 10 min after CaCl2 (75 μM) bolus; DMSO 0%, 5 μM cyclosporin A 100% inhibition
Outline: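 Freshly isolated female Sprague Dawley rat liver mitochondria with succinate, rotenone and Fluo5N were preincubated 10 min at RT with compounds (final 30 μM to 1 nM), then challenged with CaCl2. Fluorescence at 10 min gave % inhibition versus DMSO (0%) and 5 μM cyclosporin A (100%); pIC50 calculated.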

mPTP [2] = assay: mPTP activity (Ca2+ retention) assay in isolated rat brain mitochondria; assay type: biochemical; settings: isolated rat brain mitochondria; Fluo5N fluorescence at 10 min after Ca2+ (75 μM) bolus
Outline: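 Mitochondria freshly isolated from brains of perfused female Sprague Dawley rats, digitonin-treated, in pH 7.4 mannitol/MOPS/KCl buffer with pyruvate, malate, ADP and oligomycin A. Incubated with compound 10 min at RT with 2 μM Fluo5N. Fluorescence then read every 3 s for 10 min.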

Row | SMILES | mPTP Rat liver pIC50* (mPTP [1]) | mPTP Rat brain pIC50 (mPTP [2])
1 | O=C(c1cc(O)no1)N1CC(c2ccc(F)cc2)C2(CCC2)C1 (single isomer, unassigned) [Example 36b, (8-(4-fluorophenyl)-6-azaspiro[3.4]octan-6-yl)(3-hydroxyisoxazol-5-yl)methanone] | <4.52 | <4.52
2 | O=C(c1cncc(=O)[nH]1)N1CC(c2ccc(F)cc2F)C2(CCC2)C1 (single isomer, unassigned) [Example 37a, 6-(8-(2,4-difluorophenyl)-6-azaspiro[3.4]octane-6-carbonyl)pyrazin-2(1H)-one] | 5.99 | 7.28
3 | O=C(c1cncc(=O)[nH]1)N1CC(c2ccc(F)cc2F)C2(CCC2)C1 (single isomer, unassigned) [Example 37b, 6-(8-(2,4-difluorophenyl)-6-azaspiro[3.4]octane-6-carbonyl)pyrazin-2(1H)-one] | <4.52 | <4.52
4 | O=C(c1cc(O)no1)N1CC(c2cccc(F)c2)C2(CCC2)C1 (single isomer, unassigned) [Example 38a, (8-(3-fluorophenyl)-6-azaspiro[3.4]octan-6-yl)(3-hydroxyisoxazol-5-yl)methanone] | 6.41 | 7.34
5 | O=C(c1cc(O)no1)N1CC(c2cccc(F)c2)C2(CCC2)C1 (single isomer, unassigned) [Example 38b, (8-(3-fluorophenyl)-6-azaspiro[3.4]octan-6-yl)(3-hydroxyisoxazol-5-yl)methanone] | <4.52 | <4.52
6 | O=C(c1cc(O)no1)N1CC(c2cccc(F)c2F)C2(CCC2)C1 (single isomer, unassigned) [Example 39a, (8-(2,3-difluorophenyl)-6-azaspiro[3.4]octan-6-yl)(3-hydroxyisoxazol-5-yl)methanone] | 6.47 | 7.41
7 | O=C(c1cc(O)no1)N1CC(c2cccc(F)c2F)C2(CCC2)C1 (single isomer, unassigned) [Example 39b, (8-(2,3-difluorophenyl)-6-azaspiro[3.4]octan-6-yl)(3-hydroxyisoxazol-5-yl)methanone] | <4.52 | <4.52
8 | O=C(c1cncc(=O)[nH]1)N1CC(c2cccc(F)c2)C2(CCC2)C1 (single isomer, unassigned) [Example 40a, 6-(8-(3-fluorophenyl)-6-azaspiro[3.4]octane-6-carbonyl)pyrazin-2(1H)-one] | 6.55 | 7.34
9 | O=C(c1cncc(=O)[nH]1)N1CC(c2cccc(F)c2)C2(CCC2)C1 (single isomer, unassigned) [Example 40b, 6-(8-(3-fluorophenyl)-6-azaspiro[3.4]octane-6-carbonyl)pyrazin-2(1H)-one] | 4.97 | <4.52
10 | O=C(c1noc(=O)[nH]1)N1CC(c2ccc(F)cc2)C2(CCC2)C1 (single isomer, unassigned) [Example 41a, 3-(8-(4-fluorophenyl)-6-azaspiro[3.4]octane-6-carbonyl)-1,2,4-oxadiazol-5(4H)-one] | 5.95 | 7.19
11 | O=C(c1noc(=O)[nH]1)N1CC(c2ccc(F)cc2)C2(CCC2)C1 (single isomer, unassigned) [Example 41b, 3-(8-(4-fluorophenyl)-6-azaspiro[3.4]octane-6-carbonyl)-1,2,4-oxadiazol-5(4H)-one] | <4.52 | <4.52
12 | O=C(c1cncc(O)c1)N1CC(c2ccccc2)C2(CCC2)C1 (centres unmarked) [Example 1a, (5-hydroxypyridin-3-yl)(8-phenyl-6-azaspiro[3.4]octan-6-yl)methanone] | 5.68 | 6.73
13 | O=C(c1cncc(O)n1)N1CC(c2ccccc2)C2(CCC2)C1 (centres unmarked) [Example 2, (6-hydroxypyrazin-2-yl)(8-phenyl-6-azaspiro[3.4]octan-6-yl)methanone] | 5.80 | 6.90
14 | CC1(C)CN(C(=O)c2cncc(O)c2)CC1c1ccccc1 (centres unmarked) [Example 4, (3,3-dimethyl-4-phenylpyrrolidin-1-yl)(5-hydroxypyridin-3-yl)methanone] | 5.47 | 6.22
15 | O=C(c1cncc(=O)[nH]1)N1CC(c2ccccc2F)C2(CCC2)C1 (centres unmarked) [Example 7, 6-(8-(2-fluorophenyl)-6-azaspiro[3.4]octane-6-carbonyl)pyrazin-2(1H)-one] | 5.95 | 7.11
16 | CC1(C)CN(C(=O)c2cncc(=O)[nH]2)CC1c1ccccc1 (centres unmarked) [Example 8, 6-(3,3-dimethyl-4-phenylpyrrolidine-1-carbonyl)pyrazin-2(1H)-one] | 6.04 | 6.97
17 | CC1(C)CN(C(=O)c2cncc(=O)[nH]2)CCC1c1ccccc1 (centres unmarked) [Example 9, 6-(3,3-dimethyl-4-phenylpiperidine-1-carbonyl)pyrazin-2(1H)-one] | 5.28 | 6.61

Continued, values first:

Row | mPTP Rat liver pIC50* (mPTP [1]) | mPTP Rat brain pIC50 (mPTP [2]) | SMILES
18 | 6.26 | 6.99 | O=C(c1cc(O)no1)N1CC(c2ccc(F)cc2F)C2(CCC2)C1 (single isomer, unassigned) [Example 42a, (8-(2,4-difluorophenyl)-6-azaspiro[3.4]octan-6-yl)(3-hydroxyisoxazol-5-yl)methanone]
19 | <4.52 | <4.52 | O=C(c1cc(O)no1)N1CC(c2ccc(F)cc2F)C2(CCC2)C1 (single isomer, unassigned) [Example 42b, (8-(2,4-difluorophenyl)-6-azaspiro[3.4]octan-6-yl)(3-hydroxyisoxazol-5-yl)methanone]
20 | 6.56 | 7.43 | O=C(c1cncc(=O)[nH]1)N1CC(c2cccc(F)c2F)C2(CCC2)C1 (single isomer, unassigned) [Example 43a, 6-(8-(2,3-difluorophenyl)-6-azaspiro[3.4]octane-6-carbonyl)pyrazin-2(1H)-one]
21 | 4.94 | 5.69 | O=C(c1cncc(=O)[nH]1)N1CC(c2cccc(F)c2F)C2(CCC2)C1 (single isomer, unassigned) [Example 43b, 6-(8-(2,3-difluorophenyl)-6-azaspiro[3.4]octane-6-carbonyl)pyrazin-2(1H)-one]
22 | 5.63 | 7.33 | O=C(c1noc(=O)[nH]1)N1CC(c2cccc(F)c2F)C2(CCC2)C1 (single isomer, unassigned) [Example 44a, 3-(8-(2,3-difluorophenyl)-6-azaspiro[3.4]octane-6-carbonyl)-1,2,4-oxadiazol-5(4H)-one]
23 | <4.52 | 5.19 | O=C(c1noc(=O)[nH]1)N1CC(c2cccc(F)c2F)C2(CCC2)C1 (single isomer, unassigned) [Example 44b, 3-(8-(2,3-difluorophenyl)-6-azaspiro[3.4]octane-6-carbonyl)-1,2,4-oxadiazol-5(4H)-one]
24 | 6.15 | 7.45 | O=C(c1cncc(=O)[nH]1)N1CC(c2ccc(F)c(F)c2)C2(CCC2)C1 (single isomer, unassigned) [Example 45a, 6-(8-(3,4-difluorophenyl)-6-azaspiro[3.4]octane-6-carbonyl)pyrazin-2(1H)-one]
25 | <4.52 | 6.78 | O=C(c1cncc(=O)[nH]1)N1CC(c2ccc(F)c(F)c2)C2(CCC2)C1 (single isomer, unassigned) [Example 45b, 6-(8-(3,4-difluorophenyl)-6-azaspiro[3.4]octane-6-carbonyl)pyrazin-2(1H)-one]
26 | 6.28 | 7.44 | O=C(c1cc(O)no1)N1CC(c2ccc(F)c(F)c2)C2(CCC2)C1 (single isomer, unassigned) [Example 46a, (8-(3,4-difluorophenyl)-6-azaspiro[3.4]octan-6-yl)(3-hydroxyisoxazol-5-yl)methanone]
27 | <4.52 | 7.03 | O=C(c1cc(O)no1)N1CC(c2ccc(F)c(F)c2)C2(CCC2)C1 (single isomer, unassigned) [Example 46b, (8-(3,4-difluorophenyl)-6-azaspiro[3.4]octan-6-yl)(3-hydroxyisoxazol-5-yl)methanone]
28 | 5.75 | 7 | O=C(c1noc(=O)[nH]1)N1CC(c2ccc(F)c(F)c2)C2(CCC2)C1 (single isomer, unassigned) [Example 47a, 3-(8-(3,4-difluorophenyl)-6-azaspiro[3.4]octane-6-carbonyl)-1,2,4-oxadiazol-5(4H)-one]
29 | <4.52 | <4.52 | O=C(c1noc(=O)[nH]1)N1CC(c2ccc(F)c(F)c2)C2(CCC2)C1 (single isomer, unassigned) [Example 47b, 3-(8-(3,4-difluorophenyl)-6-azaspiro[3.4]octane-6-carbonyl)-1,2,4-oxadiazol-5(4H)-one]
30 | 5.53 | 6.47 | O=C(c1noc(=O)[nH]1)N1CC(c2ccc(F)cc2F)C2(CCC2)C1 (single isomer, unassigned) [Example 48a, 3-(8-(2,4-difluorophenyl)-6-azaspiro[3.4]octane-6-carbonyl)-1,2,4-oxadiazol-5(4H)-one]
31 | <4.52 | <4.52 | O=C(c1noc(=O)[nH]1)N1CC(c2ccc(F)cc2F)C2(CCC2)C1 (single isomer, unassigned) [Example 48b, 3-(8-(2,4-difluorophenyl)-6-azaspiro[3.4]octane-6-carbonyl)-1,2,4-oxadiazol-5(4H)-one]
